Results on 1 molecule are retold here after patent publication US11311483B2, “Curcumin solubilisate” (AQUANOVA AG, priority 2012, dated 2022).

The data set can be described thus: human study: plasma curcumin after a single oral dose of 500 mg curcumin. The class given is in vivo. The settings on record: 24 healthy persons, read-out: curcumin concentration in blood plasma. As for the experimental part: The solubilisate according to the invention is further characterized in that the total curcuminoid concentration in human blood plasma, measured one hour after oral administration of 500 mg curcumin in the form of the solubilisate, is approximately 500 ng curcuminoid per ml plasma±100 ng curcuminoid per ml plasma. In contrast, when native curcumin is taken orally in powdered form, only approximately 1.3 ng curcuminoid per ml plasma is achieved after one hour.
The human study on which these values are based was conducted on 24 healthy persons between 19 and 29 years of age, who received a single oral dose of 500 mg native curcumin or curcumin in the form of the solubilisate according to the invention. Blood samples were withdrawn at various times over a period of 24 hours after the curcumin was taken. To minimize the possible concurrent influence of digested food, the test subjects were served standardized meals. One hour after taking the curcumin in native form, less than 1 nmol/l plasma was measured; 8 hours after administration, 2.4 nmol/l was measured; and 24 hours after administration, 2.4 nmol/l was measured. In contrast, for curcumin from the solubilisate according to the invention, one hour after administration, 1,964 nmol/l was measured in the blood plasma; 8 hours after administration, 307.1 nmol/l was measured; and 24 hours after administration, 67.7 nmol/l was measured. A solubilisate containing […] curcumin was used (the commercial product “6% NovaSOL Curcumin” of the applicant).

Some results are limits rather than exact numbers.

Consider `COc1cc(/C=C/C(=O)CC(=O)/C=C/c2ccc(O)c(OC)c2)ccc1O` [native curcumin, Curcumin], for which the concentration at 8 h (8 hours after single oral dose of 500 mg) turned out to be 2.4 nM. For the same molecule, the concentration at 24 h (24 hours after single oral dose of 500 mg) amounted to 2.4 nM. Further, the concentration at 1 h (one hour after single oral dose of 500 mg) is under 1 nM.
